According to patent US20220023271A1, “COMPOSITION FOR PREVENTING OR TREATING CELLULAR SENESCENCE-RELATED DISEASES COMPRISING ZOTAROLIMUS AS ACTIVE INGREDIENT” (RESEARCH COOPERATION FOUNDATION OF YEUNGNAM UNIVERSITY, priority 2018, published 2022):

What was measured:
[1] = system: human tubular epithelial cell (HK2); experiment: SAβG activity staining in premature senescent HK2 cells; type: cell-based; details: premature senescent HK2 cells by doxorubicin; 100 nM, 4 days
Description: Each cell was treated in a serum-free culture solution containing 0.5 μM doxorubicin for 4 hours. After washing the cells with a serum-free culture solution, the cells were cultured for 4 days in a culture solution containing 10% FBS, and then cellular aging was confirmed by staining with senescence-associated beta galactosidase (SAβG). After each sample was dissolved in DMSO, young cells, replicative senescent cells, and premature senescent cells treated with doxorubicin were treated with 100 nM zotarolimus, 100 nM rapamycin, 100 nM ABT263, respectively. After incubation for 4 days in a 37° C., 5% CO2 incubator, the degree of cell growth was confirmed by CCK-8 analysis, the degree of cellular aging was confirmed by senescence-related beta-galactosidase (SAβG) staining, The cells were washed with 1× phosphate buffer solution, and fixed with a phosphate buffer solution containing 3.7% (v/v) paraformaldehyde. After adding 1 mg/ml 5-bromo-4-chloro-3-indolyl-6-D-galactoside, 40 mM citric acid-sodium phosphate (pH 6.0), 5 mM potassium ferricyanide, 5 mM potassium ferrocyanide, 150 mM NaCl, and 2 mM MgCl2 solution, it was reacted at 37° C. for 18 hours. It was stained with eosin as a control stain. Cells stained blue in the cytoplasm were identified using an optical microscope. […]

[2] = system: human dermal fibroblasts (HDF); experiment: LDH activity in cell culture solution of human fibroblasts; type: cell-based; details: young and replicative senescent fibroblasts; 4 days
Description: Cytotoxicity against young and senescent cells was investigated with a lactate dehydrogenase (LDH) activity kit (Dojindo Molecular Technologies Inc.).
Young cells (1×10^3 cells/100 μl/well) or senescent cells (2×10^3 cells/100 μl/well) were dispensed into a 96-well plate, and then cultured overnight in a 37° C., 5% CO2 incubator. Zotarolimus and ABT263 were treated at each concentration, and then incubated for 4 days in a 37° C., 5% CO2 incubator.
After transferring the cell culture solution to a 1.5 ml tube, it was centrifuged at 4° C. and 12,000 rpm. 100 μl of the supernatant was dispensed into a 96-well plate, and 100 μl of the LDH measurement solution was added to each well, followed by reaction in a CO2 incubator for 30 minutes.
50 μl of the LDH reaction stop solution was added, and absorbance was measured at 490 nm using a microplate reader. The level of LDH activity was expressed as a relative value based on the absorbance of the control group treated with only DMSO.
From the above results, in order to confirm whether the decrease in cell growth caused by zotarolimus was due to cell death or simply because the growth stopped, LDH activity was investigated in the cell culture solution.

Compound: CO[C@H]1C[C@@H]2CC[C@@H](C)[C@@](O)(O2)C(=O)C(=O)N2CCCC[C@H]2C(=O)O[C@H]([C@H](C)C[C@@H]2CC[C@H](n3cnnn3)[C@H](OC)C2)CC(=O)[C@H](C)/C=C(\C)[C@@H](O)[C@@H](OC)C(=O)[C@H](C)C[C@H](C)/C=C/C=C/C=C/1C [zotarolimus]
- SAβG staining [1]: decreased
- LDH activity in the cell culture medium [2]: no difference in LDH activity
